In publication PMC7736581, “Activation of the IRE1 RNase through remodeling of the kinase front pocket by ATP-competitive ligands” (Nature Communications, 2020):

Key:
Assay in all cases: biochemical
Set-up in all cases: Invitrogen kinase panel: Z'Lyte activity (ATP at Km) or LanthaScreen competitive ATP-site binding, percent inhibition
MYLK(smMLCK) = molecular target: T1, MYLK(smMLCK) (Homo sapiens, UniProt Q15746)
T1 construct: smMLCK

Mink1 = Mink1 (Homo sapiens, UniProt Q8N4C8)
CDK8/cyclinC = CDK8/cyclinC (Homo sapiens, UniProt P49336)
ALK2 = molecular target: T2, ALK2 (Homo sapiens, UniProt Q04771)
T2 construct: gene ACVR1

IKK_alpha = molecular target: T3, IKK_alpha (Homo sapiens, UniProt O15111)
T3 construct: gene CHUK

p38_gamma = molecular target: T4, p38_gamma (Homo sapiens, UniProt P53778)
T4 construct: gene MAPK12

MST1 = molecular target: T5, MST1 (Homo sapiens, UniProt Q13043)
T5 construct: gene STK4

p38_delta = molecular target: T6, p38_delta (Homo sapiens, UniProt O15264)
T6 construct: gene MAPK13

FAK = molecular target: T7, FAK (Homo sapiens, UniProt Q05397)
T7 construct: gene PTK2

DYRK1A = DYRK1A (Homo sapiens, UniProt Q13627)
ASK1 = molecular target: T8, ASK1 (Homo sapiens, UniProt Q99683)
T8 construct: gene MAP3K5

CK1_gamma1 = molecular target: T9, CK1_gamma1 (Homo sapiens, UniProt Q9HCP0)
T9 construct: gene CSNK1G1

HIPK2 = HIPK2 (Homo sapiens, UniProt Q9H2X6)
MKNK1 = MKNK1 (Homo sapiens, UniProt Q9BUB5)
SIK2 = SIK2 (Homo sapiens, UniProt Q9H0K1)
MLK2 = molecular target: T10, MLK2 (Homo sapiens, UniProt Q02779)
T10 construct: gene MAP3K10

CDK9/cyclinT1 = CDK9/cyclinT1 (Homo sapiens, UniProt P50750)
CAMKK1 = CAMKK1 (Homo sapiens, UniProt Q8N5S9)
DMPK = DMPK (Homo sapiens, UniProt Q09013)
DRAK1 = molecular target: T11, DRAK1 (Homo sapiens, UniProt Q9UEE5)
T11 construct: gene STK17A

Blk = Blk (Homo sapiens, UniProt P51451)
EGFR(T790M,L858R) = EGFR(T790M,L858R) (Homo sapiens, UniProt P00533, L858R/T790M)
FGFR3 = FGFR3 (Homo sapiens, UniProt P22607)
MuSK = MuSK (Homo sapiens, UniProt O15146)

Sequence of FGFR3 (P22607 whole entry): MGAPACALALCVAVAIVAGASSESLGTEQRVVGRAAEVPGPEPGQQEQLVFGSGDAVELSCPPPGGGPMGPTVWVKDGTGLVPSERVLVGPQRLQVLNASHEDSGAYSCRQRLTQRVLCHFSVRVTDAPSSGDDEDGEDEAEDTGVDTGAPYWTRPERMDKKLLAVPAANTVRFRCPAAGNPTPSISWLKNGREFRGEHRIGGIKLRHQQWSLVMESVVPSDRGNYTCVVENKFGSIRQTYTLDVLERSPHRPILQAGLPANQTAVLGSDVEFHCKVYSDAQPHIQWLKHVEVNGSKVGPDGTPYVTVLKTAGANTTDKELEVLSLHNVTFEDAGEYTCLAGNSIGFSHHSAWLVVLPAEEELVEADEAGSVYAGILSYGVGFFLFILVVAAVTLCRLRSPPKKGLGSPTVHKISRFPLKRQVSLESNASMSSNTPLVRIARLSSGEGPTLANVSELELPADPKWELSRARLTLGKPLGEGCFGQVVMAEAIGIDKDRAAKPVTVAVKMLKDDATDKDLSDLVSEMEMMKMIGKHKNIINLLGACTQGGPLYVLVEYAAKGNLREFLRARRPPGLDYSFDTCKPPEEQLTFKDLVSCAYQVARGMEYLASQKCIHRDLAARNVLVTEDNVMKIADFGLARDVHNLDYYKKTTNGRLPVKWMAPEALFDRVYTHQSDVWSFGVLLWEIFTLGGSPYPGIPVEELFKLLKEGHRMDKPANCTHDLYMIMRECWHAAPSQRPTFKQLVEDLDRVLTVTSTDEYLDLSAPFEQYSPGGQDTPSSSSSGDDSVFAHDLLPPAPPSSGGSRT
T5 sequence (Q13043 whole entry): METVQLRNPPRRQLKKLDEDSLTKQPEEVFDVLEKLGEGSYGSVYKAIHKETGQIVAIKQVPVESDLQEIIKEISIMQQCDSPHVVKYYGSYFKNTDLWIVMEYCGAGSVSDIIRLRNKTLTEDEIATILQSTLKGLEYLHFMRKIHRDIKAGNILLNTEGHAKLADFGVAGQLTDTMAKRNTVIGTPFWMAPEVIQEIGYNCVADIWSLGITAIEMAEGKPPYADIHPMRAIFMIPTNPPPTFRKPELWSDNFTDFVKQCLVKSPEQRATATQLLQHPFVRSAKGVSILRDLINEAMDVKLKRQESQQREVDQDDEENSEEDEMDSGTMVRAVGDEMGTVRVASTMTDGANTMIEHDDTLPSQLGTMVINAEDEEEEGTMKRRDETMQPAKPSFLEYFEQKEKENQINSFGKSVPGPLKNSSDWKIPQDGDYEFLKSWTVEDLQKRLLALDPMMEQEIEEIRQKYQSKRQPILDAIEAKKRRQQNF
T4 sequence (P53778 whole entry): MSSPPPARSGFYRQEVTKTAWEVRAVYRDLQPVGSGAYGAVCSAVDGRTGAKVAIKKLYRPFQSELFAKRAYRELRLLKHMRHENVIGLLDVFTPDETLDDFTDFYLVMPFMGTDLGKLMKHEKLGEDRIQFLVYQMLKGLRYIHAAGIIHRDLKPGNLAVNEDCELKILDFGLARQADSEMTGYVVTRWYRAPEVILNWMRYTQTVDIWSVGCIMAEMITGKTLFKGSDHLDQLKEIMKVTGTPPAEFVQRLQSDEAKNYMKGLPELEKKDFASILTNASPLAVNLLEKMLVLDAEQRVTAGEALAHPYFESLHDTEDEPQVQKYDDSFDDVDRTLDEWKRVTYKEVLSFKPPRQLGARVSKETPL
Sequence of MKNK1 (Q9BUB5 whole entry): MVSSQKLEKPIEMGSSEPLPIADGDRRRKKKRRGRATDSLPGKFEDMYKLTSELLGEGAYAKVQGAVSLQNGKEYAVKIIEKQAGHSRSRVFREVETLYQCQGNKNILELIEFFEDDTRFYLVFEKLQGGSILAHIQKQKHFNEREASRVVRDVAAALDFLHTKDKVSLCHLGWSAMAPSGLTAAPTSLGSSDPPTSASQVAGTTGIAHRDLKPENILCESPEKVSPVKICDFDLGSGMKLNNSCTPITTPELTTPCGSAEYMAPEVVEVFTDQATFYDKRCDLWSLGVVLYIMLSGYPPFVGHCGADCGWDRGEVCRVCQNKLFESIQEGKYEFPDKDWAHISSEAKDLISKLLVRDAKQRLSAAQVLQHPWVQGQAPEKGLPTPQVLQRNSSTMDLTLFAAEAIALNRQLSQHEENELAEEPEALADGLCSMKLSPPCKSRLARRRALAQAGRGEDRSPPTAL
T6 sequence (O15264 whole entry): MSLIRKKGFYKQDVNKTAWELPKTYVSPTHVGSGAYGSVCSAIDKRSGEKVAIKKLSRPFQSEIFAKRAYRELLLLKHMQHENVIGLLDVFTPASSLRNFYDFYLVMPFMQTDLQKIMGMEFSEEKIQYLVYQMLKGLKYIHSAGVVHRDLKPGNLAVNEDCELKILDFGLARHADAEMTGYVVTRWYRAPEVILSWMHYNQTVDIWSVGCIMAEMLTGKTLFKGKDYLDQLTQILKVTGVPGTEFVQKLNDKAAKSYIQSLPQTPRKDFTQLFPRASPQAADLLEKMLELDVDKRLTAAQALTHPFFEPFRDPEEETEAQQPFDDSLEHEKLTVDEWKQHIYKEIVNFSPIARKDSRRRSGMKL
Sequence of CAMKK1 (Q8N5S9 whole entry): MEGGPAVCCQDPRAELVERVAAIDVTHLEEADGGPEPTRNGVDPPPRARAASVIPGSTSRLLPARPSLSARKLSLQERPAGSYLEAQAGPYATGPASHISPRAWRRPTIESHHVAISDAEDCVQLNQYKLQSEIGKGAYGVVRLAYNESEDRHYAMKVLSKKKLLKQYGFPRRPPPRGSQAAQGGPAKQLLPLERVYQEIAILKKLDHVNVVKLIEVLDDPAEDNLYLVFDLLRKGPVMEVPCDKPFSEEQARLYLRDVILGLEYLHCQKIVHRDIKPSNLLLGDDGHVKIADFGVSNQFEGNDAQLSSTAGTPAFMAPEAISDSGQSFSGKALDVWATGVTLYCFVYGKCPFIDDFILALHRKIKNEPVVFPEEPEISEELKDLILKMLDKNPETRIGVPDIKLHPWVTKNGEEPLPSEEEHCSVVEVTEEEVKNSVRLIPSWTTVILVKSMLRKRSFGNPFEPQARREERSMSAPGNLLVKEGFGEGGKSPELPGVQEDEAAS
Sequence of Blk (P51451 whole entry): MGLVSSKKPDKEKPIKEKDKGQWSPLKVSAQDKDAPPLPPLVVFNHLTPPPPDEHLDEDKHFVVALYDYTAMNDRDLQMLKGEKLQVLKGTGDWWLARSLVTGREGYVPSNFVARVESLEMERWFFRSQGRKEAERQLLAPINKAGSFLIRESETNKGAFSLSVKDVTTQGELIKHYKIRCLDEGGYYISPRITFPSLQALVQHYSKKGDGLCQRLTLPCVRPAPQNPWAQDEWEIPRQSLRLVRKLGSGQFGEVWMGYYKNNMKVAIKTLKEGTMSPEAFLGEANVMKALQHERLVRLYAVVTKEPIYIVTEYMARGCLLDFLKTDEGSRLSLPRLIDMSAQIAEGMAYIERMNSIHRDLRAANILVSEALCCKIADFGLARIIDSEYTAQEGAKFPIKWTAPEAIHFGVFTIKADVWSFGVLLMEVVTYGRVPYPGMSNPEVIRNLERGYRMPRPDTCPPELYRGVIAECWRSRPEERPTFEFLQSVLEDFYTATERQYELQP
Sequence of DMPK (Q09013 whole entry): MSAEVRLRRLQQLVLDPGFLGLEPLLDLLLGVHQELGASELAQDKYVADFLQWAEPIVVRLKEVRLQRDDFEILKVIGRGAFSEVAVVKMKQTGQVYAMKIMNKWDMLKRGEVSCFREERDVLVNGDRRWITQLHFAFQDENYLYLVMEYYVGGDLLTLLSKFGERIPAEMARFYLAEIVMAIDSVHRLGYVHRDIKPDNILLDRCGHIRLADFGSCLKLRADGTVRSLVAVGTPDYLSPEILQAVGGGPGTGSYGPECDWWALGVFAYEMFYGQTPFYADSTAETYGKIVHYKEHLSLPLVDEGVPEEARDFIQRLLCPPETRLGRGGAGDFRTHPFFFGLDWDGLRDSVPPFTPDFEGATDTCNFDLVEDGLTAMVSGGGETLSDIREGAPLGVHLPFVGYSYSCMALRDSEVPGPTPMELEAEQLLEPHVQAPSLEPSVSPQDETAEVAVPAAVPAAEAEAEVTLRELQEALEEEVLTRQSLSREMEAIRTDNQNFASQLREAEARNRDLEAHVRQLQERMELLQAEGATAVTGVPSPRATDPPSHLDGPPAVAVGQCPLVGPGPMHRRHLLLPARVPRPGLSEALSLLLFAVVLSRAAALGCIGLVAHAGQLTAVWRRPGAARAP
T2 sequence (Q04771 whole entry): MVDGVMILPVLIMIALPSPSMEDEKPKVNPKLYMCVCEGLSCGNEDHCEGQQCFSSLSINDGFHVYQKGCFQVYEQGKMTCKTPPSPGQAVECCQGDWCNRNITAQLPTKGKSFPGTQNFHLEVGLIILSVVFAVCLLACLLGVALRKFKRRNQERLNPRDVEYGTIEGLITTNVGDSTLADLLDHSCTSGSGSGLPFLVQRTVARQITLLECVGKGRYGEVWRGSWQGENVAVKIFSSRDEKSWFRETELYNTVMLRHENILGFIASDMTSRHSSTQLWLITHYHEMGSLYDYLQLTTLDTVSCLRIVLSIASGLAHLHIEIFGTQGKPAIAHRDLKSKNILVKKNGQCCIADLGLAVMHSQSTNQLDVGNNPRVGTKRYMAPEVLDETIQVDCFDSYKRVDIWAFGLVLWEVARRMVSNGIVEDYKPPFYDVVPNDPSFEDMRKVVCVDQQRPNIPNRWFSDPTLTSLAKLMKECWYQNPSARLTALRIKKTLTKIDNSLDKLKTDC

Row | Compound | inhibition at 1 µM (MYLK(smMLCK)) [%] | inhibition at 1 µM (Mink1) [%] | inhibition at 1 µM (CDK8/cyclinC) [%] | inhibition at 1 µM (ALK2) [%] | inhibition at 1 µM (IKK_alpha) [%] | inhibition at 1 µM (p38_gamma) [%] | inhibition at 1 µM (MST1) [%] | inhibition at 1 µM (p38_delta) [%] | inhibition at 1 µM (FAK) [%] | inhibition at 1 µM (DYRK1A) [%] | inhibition at 1 µM (ASK1) [%] | inhibition at 1 µM (CK1_gamma1) [%] | inhibition at 1 µM (HIPK2) [%] | inhibition at 1 µM (MKNK1) [%] | inhibition at 1 µM (SIK2) [%] | inhibition at 1 µM (MLK2) [%] | inhibition at 1 µM (CDK9/cyclinT1) [%] | inhibition at 1 µM (CAMKK1) [%] | inhibition at 1 µM (DMPK) [%] | inhibition at 1 µM (DRAK1) [%] | further results
1 | CCOC(=O)Nc1cccc2c(Oc3ncccc3-c3ccnc(N[C@H]4CCCNC4)n3)c(C)ccc12 [G-1749] | 1.5 | 25 | 2.5 | 1 | -3.5 | 18 | 1 | 11.5 | 1.5 | 4 | -4 | -1.5 | 3 | 1.5 | -16.5 | 0.5 | 29 | 3.5 | 0 | 0 | inhibition at 1 µM (Blk): 10%; inhibition at 1 µM (EGFR(T790M,L858R)): 2.5%; inhibition at 1 µM (FGFR3): -6%; inhibition at 1 µM (MuSK): 13.5%
2 | CC#CC(=O)Nc1cccc2c(Oc3ncccc3-c3ccnc(N[C@H]4CCCNC4)n3)c(C)ccc12 [G-7658] | 6 | 4 | 2 | 0.5 | -2 | 16.5 | -0.5 | 13.5 | 1.5 | 2.5 | 2 | 9 | 2.5 | -1 | 6 | 4 | 35 | 5.5 | 1.5 | -4 | inhibition at 1 µM (Blk): 7.5%; inhibition at 1 µM (EGFR(T790M,L858R)): 4%; inhibition at 1 µM (FGFR3): -5%; inhibition at 1 µM (MuSK): 9.5%
